According to PMC9138090, “Study on the Neuroprotective, Radical-Scavenging and MAO-B Inhibiting Properties of New Benzimidazole Arylhydrazones as Potential Multi-Target Drugs for the Treatment of Parkinson’s Disease” (Antioxidants, 2022):
Entries after “also recorded” stand apart in the source; their conditions may differ.

What was measured:
[1] = molecular target: T1, human recombinant MAO-B (hMAO-B) enzyme (Homo sapiens, UniProt P27338); assay: hMAO-B activity, Amplex UltraRed fluorometric method; type: biochemical; conditions: 1 µM
T1 construct: purchased Invitrogen, USA
T1 sequence (P27338 1-520): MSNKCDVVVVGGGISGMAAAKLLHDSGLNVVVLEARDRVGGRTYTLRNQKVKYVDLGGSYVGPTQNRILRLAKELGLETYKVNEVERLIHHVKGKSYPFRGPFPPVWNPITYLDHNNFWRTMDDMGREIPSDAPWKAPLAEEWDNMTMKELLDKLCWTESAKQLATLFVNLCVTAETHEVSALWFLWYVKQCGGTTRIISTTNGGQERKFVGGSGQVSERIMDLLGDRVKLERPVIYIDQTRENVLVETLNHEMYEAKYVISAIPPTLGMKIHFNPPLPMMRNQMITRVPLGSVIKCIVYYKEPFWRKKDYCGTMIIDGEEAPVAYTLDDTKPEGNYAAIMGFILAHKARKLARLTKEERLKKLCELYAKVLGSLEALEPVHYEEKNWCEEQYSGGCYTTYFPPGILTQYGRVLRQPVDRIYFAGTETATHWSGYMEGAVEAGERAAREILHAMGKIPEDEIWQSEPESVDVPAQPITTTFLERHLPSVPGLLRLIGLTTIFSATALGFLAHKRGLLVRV
Method: The effects of the test compounds on human recombinant MAO-B (hMAO-B) enzyme were studied by the Amplex UltraRed reagent (Sigma-Aldrich Chemie GmbH) fluorometric method with small modifications. The working solutions of the compounds, reagents, hMAO-B, and reaction buffers were prepared according to the producer’s instructions. The tyramine hydrochloride was used as a substrate. The reaction mixture contained a stock solution of Amplex Red (10 mM in dimethyl sulfoxide), the reaction buffer (0.05 M sodium phosphate) at pH 7.4, and the storage solution of horseradish peroxidase (10 U/mL). There were pure MAO-B working solutions in the reaction buffer and MAO-B working solution containing hydrogen peroxide as controls. The final concentration of the test compounds in the well was 1 μM. The compounds together with hMAO-B were embedded in a 96-well plate (8 wells for each compound), and then the plate was incubated for 30 min (dark, at 37 °C). Thereafter, the reaction was initiated by 50 μL Mix Solution: Amplex®Red reagent, horseradish peroxidase, and tyramine as an enzyme substrate in the reaction buffer. The fluorescence was measured every 30 min at 0, 30, 60, 90, 120, and 150 min), in dark, while shaking the reaction mixture at constant temperature of 37 °C. The fluorimetric measurements were assessed using a Synergy 2 Microplate Reader.
Monoamine oxidase B catalyzes dopamine metabolism and oxidation leading to the formation of reactive oxygen species and reactive quinones, which provoke dopamine neurotoxicity and neurodegeneration. In the next experiments, the compounds showing the best safety profile and the most promising neuroprotective activity (3d, 3e, 3h, 3i, 3m, 3n, 3p) were evaluated for their potential inhibitory activity on hMAOB. Selegiline and rasagiline as potent MAO-B inhibitors were used as standard compounds for comparison.

rat brain synaptosomes = assay: Synaptosomal viability (MTT), toxicity evaluation; type: cell-based; conditions: concentrations < 250 µM (1 to 250 µM tested)
Method: Synaptosomes were prepared from brains of adult male Wistar rats. The brains were homogenized in 10 volume of cold buffer 1, containing 5 mM HEPES and 0.32 M sucrose (pH = 7.4). The brain homogenate was centrifuged twice at 1000× g for 5 min at 4 °C. The supernatant was collected and centrifuged 3 times at 10,000× g for 20 min at 4 °C. The pellet was re-suspended in ice-cold buffer 1. The synaptosomes were isolated by using Percoll reagent to prepare the gradient. Synaptosomes were re-suspended and incubated in buffer 2, containing 290 mM NaCl, 0.95 mM MgCl2 × 6H2O, 10 mM KCl, 2.4 mM CaCl2 × H2O, 2.1 mM NaH2PO4, 44 mM HEPES, and 13 mM D-glucose. Incubations were performed in a 5% CO2 + 95% O2 atmosphere. The content of synaptosomal protein was determined according to the method of Lowry et al. using bovine serum albumin as a standard.
Synaptosomal viability was measured by (3-(4,5)-dimethylthiazol-2-yl)-2,5-diphenyl tetrazolium bromide)-test, described by Mungarro-Menchaca et al. The synaptosomes were incubated with the compounds and then treated with (3-(4,5)-dimethylthiazol-2-yl)-2,5-diphenyl tetrazolium bromide) solution (0.5 mg/mL) for 1 h at 37 °C. After incubation they were centrifuged at 15,000× g for 1 min. The formed formazan crystals were dissolved in DMSO (Dimethyl sulfoxide). The extinction was measured spectrophotometrically at λ = 580 nm.
The low toxicity and substantial neuroprotective properties shown by some of the potential drug candidates in human neuroblastoma SH-SY5Y cells directed the experimental work to be elaborated on a different cellular in vitro model using freshly isolated rat brain synaptosomes for the evaluation of the protective effects and toxicity of selected promising compounds [56]. The rat brain synaptosomes represent a terminal part of the axons and contain synaptic vesicles, mitochondria, lysosomes, parts of the cell membrane, neurotransmitters, which diffuse across the synaptic cleft. Besides the presynaptic membrane, a part of postsynaptic membrane with the postsynaptic density is often attached to the nerve ending. In their experiments, Student and Edwards examined the subcellular localization of the A and B forms of MAO in rat brain. […] The authors conclude from the data that MAO-B activity is, indeed, associated with synaptosomes and may be non-uniformly located among different populations of synaptic endings. The functional-metabolic status of the synaptosomes was evaluated by measuring the synaptosomal viability (MTT assay) and the levels of reduced gluthathione (GSH) (Figure 2). […] At the highest used concentration (250 µM) a relative decrease in the synaptosomal viability and the levels of reduced glutathione was observed.

Row | Structure (SMILES) | inhibitory effect on hMAOB activity (in words) [1] | effect on rat brain synaptosomes viability (rat brain synaptosomes)
1 | O=C(CCn1c(=S)n(CCC(=O)NN=Cc2ccccc2O)c2ccccc21)NN=Cc1ccccc1O [3e, 3,3′-(2-Thioxo-1H-benzo[d]imidazole-1,3(2H)-diyl)bis(N′-(2-hydroxybenzylidene)propanehydrazide)] | statistically significant MAO-B inhibitory effects | did not significantly reduce
2 | O=C(CCn1c(=S)n(CCC(=O)NN=Cc2cccc(O)c2O)c2ccccc21)NN=Cc1cccc(O)c1O [3h, 3,3′-(2-Thioxo-1H-benzo[d]imidazole-1,3(2H)-diyl)bis(N′-(2,3-dihydroxybenzylidene)propanehydrazide)] | statistically significant MAO-B inhibitory effects; also recorded: most potent with an hMAO-B inhibitory activity similar to selegiline and rasagiline | did not significantly reduce
3 | O=C(CCn1c(=S)n(CCC(=O)NN=Cc2ccc(O)cc2O)c2ccccc21)NN=Cc1ccc(O)cc1O [3i, 3,3′-(2-Thioxo-1H-benzo[d]imidazole-1,3(2H)-diyl)bis(N′-(2,4-dihydroxybenzylidene)propanehydrazide)] | statistically significant MAO-B inhibitory effects | did not significantly reduce
4 | COc1ccc(C=NNC(=O)CCn2c(=S)n(CCC(=O)NN=Cc3ccc(OC)cc3O)c3ccccc32)c(O)c1 [3m, 3,3′-(2-Thioxo-1H-benzo[d]imidazole-1,3(2H)-diyl)bis(N′-(2-hydroxy-4-methoxybenzylidene)propanehydrazide)] | statistically significant MAO-B inhibitory effects | did not significantly reduce
